Reference: patent US20250171420A1 (Monte Rosa Therapeutics, Inc., priority 2022, published 2025)
Like-named read-outs stand apart in the source and are kept apart here.

Tests used:
SKCO1 cell line = experiment: Growth inhibition, CyQUANT Direct Cell Proliferation Assay, SKCO1; format: cell-based; conditions: Homo sapiens
Experimental: (§1) SKCO1, LS180, and LS174T cell lines were purchased from ATCC. CW2 cell line was purchased from Riken. GP2D cell line was purchased from Sigma/ECACC. All cell lines were cultured in manufacturer's recommended media at 37° C., 5% CO2. Briefly, cells were suspended in 200 μL of media and seeded at 300 to 1,800 cells per well in tissue culture treated 96-well plates with black walls and clear bottom. Plates were incubated overnight and initial (To) read was performed the following day using CyQUANT Direct Cell Proliferation Assay Kit (Thermo Fisher Scientific) according to manufacturer's protocol. All compounds were solubilized in DMSO and prepared at 3-fold serial dilution, using 9 points starting at 30 μM as highest concentration, administered to cells and incubated for 120 to 168 hours, at which point CyQUANT assay measurement was performed using Acumen Cellista instrument (Ex/Em 480/520 nm). Media-only wells were used as blank, and 0.3% DMSO was used as DMSO-treated cell control. Growth inhibition (percent response) was calculated using the following formula in Excel: “=if ([Compound treated Day N]>[Untreated Day 0, AVG], ([Compound treated Day N]−[Untreated Day 0, AVG])/([Untreated Day N]−[Untreated Day 0, AVG])*100, ([Compound Treated Day N]−[Untreated Day 0, AVG])/([Untreated Day 0, AVG])*100)”. GI50 is the response corresponding to the 50% of untreated control.
(§2) GI50 data are reported in Tables 4a, 4b, 4c, 4d, and 4e for compounds in Table 1. In Tables 4a, 4b, 4c, 4d, and 4e below, According to the code, A represents a GI50 value of ≤0.1 μM, B represents a GI50 value>0.1 μM and ≤1 μM, C represents an GI50 value>1 μM.

CRBN/DDB1 = CRBN/DDB1 (Homo sapiens, UniProt Q96SW2); experiment: HTRF binding assay (displacement of Cy5-thalidomide probe from CRBN/DDB1); conditions: CRBN/DDB1 2.5 nM, Cy5-Thalidomide 100 nM, 30 min; geometric mean; read-out: HTRF_Thali_Disp_DR_geo_IC50
Outline: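 Compounds in a 10-point threefold dilution series were incubated 30 min at ambient temperature with 2.5 nM CRBN/DDB1, 100 nM Cy5-thalidomide probe and terbium anti-His donor (HEPES/NaCl/TCEP/EDTA/Tween20 buffer). IC50 came from 4-parameter fits of the 665/620 nm HTRF ratio; Ki used Cheng-Prusoff on geometric-mean IC50.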

LS174T cell line = experiment: Growth inhibition, CyQUANT Direct Cell Proliferation Assay, LS174T; format: cell-based; conditions: Homo sapiens
Experimental: as §1, §2

LS180 cell line = experiment: Growth inhibition, CyQUANT Direct Cell Proliferation Assay, LS180; format: cell-based; conditions: Homo sapiens
Experimental: as §1, §2

CK1α = target: T1, CK1α (Homo sapiens, UniProt P48729); experiment: CK1α NanoBit Assay (HiBiT-tagged CSNK1A1, HEK293 clonal lines); format: cell-based; conditions: HEK293 HiBiT-CSNK1A1/LgBiT cells, 24 h incubation
T1 construct: HEK293 clonal lines with CRISPR KI HiBiT tag on CSNK1A1
Outline: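 HEK293 clones carrying a CRISPR knock-in HiBiT tag on CSNK1A1 and stably expressing LgBiT are treated with compound for 24 hours at 37° C, 5% CO2, then read by luminescence. Response is normalized as 100*(S−N)/(P−N) against plate negative and positive controls, and DC50 values are derived.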

GP2D cell line = experiment: Growth inhibition, CyQUANT Direct Cell Proliferation Assay, GP2D; format: cell-based
Experimental: as §1, §2

CW2 cell line = experiment: Growth inhibition, CyQUANT Direct Cell Proliferation Assay, CW2; format: cell-based; conditions: Homo sapiens
Experimental: as §1, §2

CRBN/DDB1, sequence (Q96SW2 whole entry, species assumed): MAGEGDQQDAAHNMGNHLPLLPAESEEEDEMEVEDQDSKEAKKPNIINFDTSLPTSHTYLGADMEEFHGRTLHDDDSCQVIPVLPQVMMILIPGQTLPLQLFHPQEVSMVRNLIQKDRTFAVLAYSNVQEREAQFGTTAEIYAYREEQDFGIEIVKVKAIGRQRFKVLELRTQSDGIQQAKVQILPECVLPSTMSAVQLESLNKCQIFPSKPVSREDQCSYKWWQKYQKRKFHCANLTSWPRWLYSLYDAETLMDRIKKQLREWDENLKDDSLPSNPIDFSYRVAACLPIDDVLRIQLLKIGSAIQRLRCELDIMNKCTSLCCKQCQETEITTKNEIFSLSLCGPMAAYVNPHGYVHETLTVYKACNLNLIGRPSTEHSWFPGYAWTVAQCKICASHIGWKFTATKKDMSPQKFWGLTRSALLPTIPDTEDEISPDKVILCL
CRBN/DDB1, sequence (Q16531 whole entry partner, species assumed): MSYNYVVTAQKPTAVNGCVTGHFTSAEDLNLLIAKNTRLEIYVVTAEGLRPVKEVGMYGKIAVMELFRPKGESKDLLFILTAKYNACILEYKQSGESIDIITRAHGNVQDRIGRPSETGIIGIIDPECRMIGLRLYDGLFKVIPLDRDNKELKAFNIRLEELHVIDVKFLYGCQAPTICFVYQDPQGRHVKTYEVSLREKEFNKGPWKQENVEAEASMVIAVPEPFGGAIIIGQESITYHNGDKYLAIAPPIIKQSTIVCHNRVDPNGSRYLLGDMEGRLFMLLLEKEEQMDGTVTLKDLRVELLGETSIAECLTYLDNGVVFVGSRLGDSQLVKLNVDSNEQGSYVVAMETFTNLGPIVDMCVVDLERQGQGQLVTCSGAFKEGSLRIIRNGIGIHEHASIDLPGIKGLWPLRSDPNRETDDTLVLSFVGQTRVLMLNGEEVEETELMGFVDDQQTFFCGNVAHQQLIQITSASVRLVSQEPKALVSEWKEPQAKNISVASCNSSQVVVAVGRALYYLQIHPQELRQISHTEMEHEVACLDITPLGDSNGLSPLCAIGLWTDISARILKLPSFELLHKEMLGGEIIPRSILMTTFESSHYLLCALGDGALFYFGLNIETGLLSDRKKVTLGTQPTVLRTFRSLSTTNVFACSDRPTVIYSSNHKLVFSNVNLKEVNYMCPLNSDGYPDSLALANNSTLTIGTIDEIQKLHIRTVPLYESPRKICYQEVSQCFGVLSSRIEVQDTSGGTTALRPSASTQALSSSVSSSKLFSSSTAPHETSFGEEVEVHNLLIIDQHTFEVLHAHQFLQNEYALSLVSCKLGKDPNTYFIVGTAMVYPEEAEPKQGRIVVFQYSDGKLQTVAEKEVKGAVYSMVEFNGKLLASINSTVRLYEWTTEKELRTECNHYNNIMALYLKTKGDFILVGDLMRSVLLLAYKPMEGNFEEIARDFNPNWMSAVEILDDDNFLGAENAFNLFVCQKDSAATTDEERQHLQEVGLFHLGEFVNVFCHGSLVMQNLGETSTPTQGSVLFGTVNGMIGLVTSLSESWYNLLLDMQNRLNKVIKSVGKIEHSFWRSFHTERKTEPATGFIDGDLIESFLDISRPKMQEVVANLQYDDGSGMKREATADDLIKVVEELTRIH
T1 sequence (P48729 whole entry): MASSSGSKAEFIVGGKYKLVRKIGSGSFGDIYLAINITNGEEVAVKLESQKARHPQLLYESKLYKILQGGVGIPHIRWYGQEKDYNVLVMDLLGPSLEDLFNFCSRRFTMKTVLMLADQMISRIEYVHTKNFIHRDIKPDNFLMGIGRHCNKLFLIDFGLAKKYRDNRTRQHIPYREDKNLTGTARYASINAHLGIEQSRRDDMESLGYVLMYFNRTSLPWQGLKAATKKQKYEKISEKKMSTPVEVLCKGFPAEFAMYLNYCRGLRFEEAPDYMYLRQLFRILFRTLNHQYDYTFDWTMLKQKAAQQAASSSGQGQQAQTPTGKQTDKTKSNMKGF
T1 sequence (Q96SW2 whole entry, further chain): as the sequence (Q96SW2 whole entry, species assumed) above
T1 sequence (Q16531 2-1140 partner limits assumed): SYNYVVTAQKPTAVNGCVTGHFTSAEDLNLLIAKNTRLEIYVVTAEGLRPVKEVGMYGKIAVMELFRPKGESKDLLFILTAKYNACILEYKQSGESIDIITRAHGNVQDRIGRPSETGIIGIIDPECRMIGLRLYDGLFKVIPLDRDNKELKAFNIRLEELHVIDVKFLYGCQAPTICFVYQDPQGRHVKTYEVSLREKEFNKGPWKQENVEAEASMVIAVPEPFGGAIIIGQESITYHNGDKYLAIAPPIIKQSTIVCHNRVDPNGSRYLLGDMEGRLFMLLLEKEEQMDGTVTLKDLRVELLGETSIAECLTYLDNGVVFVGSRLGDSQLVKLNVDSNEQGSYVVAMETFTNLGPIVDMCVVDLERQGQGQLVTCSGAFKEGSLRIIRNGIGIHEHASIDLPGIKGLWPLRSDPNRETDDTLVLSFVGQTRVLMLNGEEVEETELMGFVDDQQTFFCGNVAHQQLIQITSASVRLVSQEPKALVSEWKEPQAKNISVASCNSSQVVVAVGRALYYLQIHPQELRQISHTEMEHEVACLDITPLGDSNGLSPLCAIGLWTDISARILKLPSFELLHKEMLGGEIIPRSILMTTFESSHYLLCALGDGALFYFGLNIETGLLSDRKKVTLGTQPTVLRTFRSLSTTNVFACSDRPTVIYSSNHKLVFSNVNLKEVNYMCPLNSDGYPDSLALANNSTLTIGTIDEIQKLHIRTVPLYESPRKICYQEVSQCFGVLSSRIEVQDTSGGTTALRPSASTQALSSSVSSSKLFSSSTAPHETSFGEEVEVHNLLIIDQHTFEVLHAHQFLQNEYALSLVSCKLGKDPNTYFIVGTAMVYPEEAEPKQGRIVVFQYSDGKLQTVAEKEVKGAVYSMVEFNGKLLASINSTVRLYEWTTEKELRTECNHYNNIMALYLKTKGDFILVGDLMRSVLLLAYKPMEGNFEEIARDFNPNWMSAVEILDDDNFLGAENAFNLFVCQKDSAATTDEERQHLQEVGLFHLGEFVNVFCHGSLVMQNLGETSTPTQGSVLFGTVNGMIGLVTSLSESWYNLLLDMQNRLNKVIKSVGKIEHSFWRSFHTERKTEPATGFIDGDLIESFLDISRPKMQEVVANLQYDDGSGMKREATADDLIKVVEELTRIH

Row | Compound | IC50 (CRBN/DDB1) [nM] | DC50 (CK1α) [µM] | other results
1 | O=C1CCC(N2Cc3cc(NC(=O)N4CCc5c4cccc5C(F)(F)F)ccc3C2=O)C(=O)N1 (centres unmarked) [Compound 135, N-(2-(2,6-dioxopiperidin-3-yl)-1-oxoisoindolin-5-yl)-4-(trifluoromethyl)indoline-1-carboxamide] | 100 to 1000 | < 0.1 | GI50 (SKCO1 cell line; SK-CO-1, read-out: SKCO1 GI50 (μM)): < 0.1 µM; GI50 (LS174T cell line; read-out: LS174T GI50 (μM)): 0.1 to 1 µM; GI50 (LS180 cell line; LS180, read-out: LS180 GI50 (μM)): 0.1 to 1 µM; GI50 (GP2D cell line; GP2d, read-out: GP2D GI50 (μM)): < 0.1 µM; GI50 (CW2 cell line; CW-2, read-out: CW2 GI50 (μM)): < 0.1 µM
2 | O=C1CC[C@H](N2Cc3cc(NC(=O)N4c5ccccc5C[C@@H]4C(F)(F)F)ccc3C2=O)C(=O)N1 (single isomer, unassigned) [Compound 362] | 100 to 1000 | < 0.1 | –
3 | COCC1C2c3ccccc3N(C(=O)Nc3ccc4c(c3)CN(C3CCC(=O)NC3=O)C4=O)C12 (centres unmarked) [Compound 320, N-(2-(2,6-dioxopiperidin-3-yl)-1-oxoisoindolin-5-yl)-1-(methoxymethyl)-1a, 6b-dihydrocyclopropa[b]indole-2(1H)-carboxamide] | 100 to 1000 | < 0.1 | –
4 | C[C@@H]1Cc2ccc(F)cc2N1C(=O)Nc1ccc2c(c1)CN(C1CCC(=O)NC1=O)C2=O (stereo partly drawn) [Compound 356, (2R)—N-(2-(2,6-dioxopiperidin-3-yl)-1-oxoisoindolin-5-yl)-6-fluoro-2-methylindoline-1-carboxamide] | 100 to 1000 | < 0.1 | –
5 | O=C1CCC(N2Cc3cc(NC(=O)N4CCc5cc(C6CCOC6)ccc54)ccc3C2=O)C(=O)N1 (centres unmarked) [Compound 345, N-(2-(2,6-dioxopiperidin-3-yl)-1-oxoisoindolin-5-yl)-5-(tetrahydrofuran-3-yl)indoline-1-carboxamide] | < 100 | < 0.1 | –
6 | C[C@@H]1Cc2ccccc2N1C(=O)Nc1ccc2c(c1F)CN(C1CCC(=O)NC1=O)C2=O (stereo partly drawn) [Compound 289, (2R)—N-(2-(2,6-dioxopiperidin-3-yl)-4-fluoro-1-oxoisoindolin-5-yl)-2-methylindoline-1-carboxamide] | 100 to 1000 | < 0.1 | –
7 | CC1CN(C(=O)Nc2ccc3c(c2)CN(C2CCC(=O)NC2=O)C3=O)Cc2ccccc21 (centres unmarked) [Compound 191, N-(2-(2,6-dioxopiperidin-3-yl)-1-oxoisoindolin-5-yl)-4-methyl-3,4-dihydroisoquinoline-2(1H)-carboxamide] | 100 to 1000 | < 0.1 | –
8 | O=C1CCC(N2Cc3cc(NC(=O)N4CC5(CCCC5)c5ccccc54)ccc3C2=O)C(=O)N1 (centres unmarked) [Compound 192, N-(2-(2,6-dioxopiperidin-3-yl)-1-oxoisoindolin-5-yl)spiro[cyclopentane-1,3′-indoline]-1′-carboxamide] | 100 to 1000 | < 0.1 | –
9 | CNC(=O)[C@@H]1Cc2ccccc2N1C(=O)Nc1ccc2c(c1)CN(C1CCC(=O)NC1=O)C2=O (stereo partly drawn) [Compound 326, (2S)—N^1-(2-(2,6-dioxopiperidin-3-yl)-1-oxoisoindolin-5-yl)-N^2-methylindoline-1,2-dicarboxamide] | 100 to 1000 | 0.1 to 1 | –
10 | O=C1CCC(N2Cc3cc(NC(=O)N4c5ccc(C(F)(F)F)cc5CC45COC5)ccc3C2=O)C(=O)N1 (centres unmarked) [Compound 298] | 100 to 1000 | < 0.1 | –
11 | O=C1CCC(N2Cc3cc(NC(=O)N4CC5(CCC5)c5ccccc54)ccc3C2=O)C(=O)N1 (centres unmarked) [Compound 188] | 100 to 1000 | < 0.1 | –
12 | O=C1CCC(N2Cc3cc(NC(=O)N4CCc5cc(-n6cccn6)ccc54)ccc3C2=O)C(=O)N1 (centres unmarked) [Compound 355] | < 100 | < 0.1 | –
13 | O=C1CCC(N2Cc3cc(NC(=O)N4c5cccc(F)c5C[C@H]4COC(F)F)ccc3C2=O)C(=O)N1 (stereo partly drawn) [Compound 308, (2S)-2-((difluoromethoxy)methyl)-N-(2-(2,6-dioxopiperidin-3-yl)-1-oxoisoindolin-5-yl)-4-fluoroindoline-1-carboxamide] | 100 to 1000 | < 0.1 | –
14 | O=C1CCC(N2Cc3cc(NC(=O)N4CCc5cccnc54)ccc3C2=O)C(=O)N1 (centres unmarked) [Compound 112, N-(2-(2,6-dioxopiperidin-3-yl)-1-oxoisoindolin-5-yl)-2,3-dihydro-1H-pyrrolo[2,3-b]pyridine-1-carboxamide] | > 1000 | 0.1 to 1 | –

More lines, main results first:

Row | IC50 (CRBN/DDB1) [nM] | DC50 (CK1α) [µM] | Compound | other results
15 | > 1000 | < 0.1 | COC[C@@H]1Cc2ccccc2N1C(=O)Nc1ccc2c(c1)CN(C1CCC(=O)NC1=O)C2=O (stereo in doubt) [Compound 334, (S)—N-(2-((R)-2,6-dioxopiperidin-3-yl)-1-oxoisoindolin-5-yl)-2-(methoxymethyl)indoline-1-carboxamide] | GI50 (SKCO1 cell line; SK-CO-1, SKCO1, 120 to 168 hours, read-out: SKCO1 GI50): 0.1 to 1 µM; GI50 (LS174T cell line; 120 to 168 hours, read-out: LS174T GI50): 0.1 to 1 µM; GI50 (LS180 cell line; LS180, 120 to 168 hours, read-out: LS180 GI50): 0.1 to 1 µM; GI50 (GP2D cell line; GP2D, 120 to 168 hours, read-out: GP2D GI50): 0.1 to 1 µM; GI50 (CW2 cell line; CW-2, CW2, 120 to 168 hours, read-out: CW2 GI50): 0.1 to 1 µM
16 | 100 to 1000 | < 0.1 | COCC1Cc2cc(C(F)(F)F)ncc2N1C(=O)Nc1ccc2c(c1)CN(C1CCC(=O)NC1=O)C2=O (centres unmarked) [Compound 321, N-(2-(2,6-dioxopiperidin-3-yl)-1-oxoisoindolin-5-yl)-2-(methoxymethyl)-5-(trifluoromethyl)-2,3-dihydro-1H-pyrrolo[2,3-c]pyridine-1-carboxamide] | –
17 | 100 to 1000 | < 0.1 | O=C1CCC(N2Cc3cc(NC(=O)N4c5ccccc5C[C@H]4COCC(F)(F)F)ccc3C2=O)C(=O)N1 (stereo partly drawn) [Compound 316, (2S)—N-(2-(2,6-dioxopiperidin-3-yl)-1-oxoisoindolin-5-yl)-2-((2,2,2-trifluoroethoxy)methyl)indoline-1-carboxamide] | –
18 | 100 to 1000 | < 0.1 | CC1Cc2cc(C(F)(F)F)ncc2N1C(=O)Nc1ccc2c(c1)CN(C1CCC(=O)NC1=O)C2=O (centres unmarked) [Compound 353, N-(2-(2,6-dioxopiperidin-3-yl)-1-oxoisoindolin-5-yl)-2-methyl-5-(trifluoromethyl)-2,3-dihydro-1H-pyrrolo[2,3-c]pyridine-1-carboxamide] | –
19 | 100 to 1000 | < 0.1 | O=C1CCC(N2Cc3cc(NC(=O)N4c5ccccc5C[C@H]4COC(F)F)ccc3C2=O)C(=O)N1 (stereo partly drawn) [Compound 309, (2S)-2-((difluoromethoxy)methyl)-N-(2-(2,6-dioxopiperidin-3-yl)-1-oxoisoindolin-5-yl)indoline-1-carboxamide] | –
20 | 100 to 1000 | < 0.1 | O=C1CCC(N2Cc3cc(NC(=O)N4c5ccccc5C[C@H]4COC(F)(F)F)ccc3C2=O)C(=O)N1 (stereo partly drawn) [Compound 311, (2S)—N-(2-(2,6-dioxopiperidin-3-yl)-1-oxoisoindolin-5-yl)-2-((trifluoromethoxy)methyl)indoline-1-carboxamide] | –
21 | 100 to 1000 | < 0.1 | COC[C@@H]1Cc2cc(C(F)(F)F)ncc2N1C(=O)Nc1ccc2c(c1)CN(C1CCC(=O)NC1=O)C2=O (stereo partly drawn) [Compound 294, (2S)—N-(2-(2,6-dioxopiperidin-3-yl)-1-oxoisoindolin-5-yl)-2-(methoxymethyl)-5-(trifluoromethyl)-2,3-dihydro-1H-pyrrolo[2,3-c]pyridine-1-carboxamide] | –
22 | 100 to 1000 | < 0.1 | COC[C@H]1Cc2ccccc2N1C(=O)Nc1ccc2c(c1)CN(C1CCC(=O)NC1=O)C2=O (stereo partly drawn) [Compound 352, (2R)—N-(2-(2,6-dioxopiperidin-3-yl)-1-oxoisoindolin-5-yl)-2-(methoxymethyl)indoline-1-carboxamide] | –
23 | > 1000 | < 0.1 | O=C1CC[C@@H](N2Cc3cc(NC(=O)N4c5ccccc5C[C@H]4C(F)(F)F)ccc3C2=O)C(=O)N1 (single isomer, unassigned) [Compound 359] | –
